Patent publication US11878970B2, “Allosteric chromenone inhibitors of phosphoinositide 3-kinase (PI3K) for the treatment of disease” (Petra Pharma Corporation, priority 2021, dated 2024)

Experiments:
[1] = target: T1, PI3K-α (PIK3CA) wild-type (WT), p110α/p85α complex (Homo sapiens, UniProt P42336); assay: PI3K-alpha kinase (PIK3CA) biochemical activity, ADP-Glo, wild-type; details: Soy PI lipid substrate
T1 construct: Recombinant, catalytically active human full length PIK3KA Wild-type and H1047R mutant; 6×His (N); purchased EMD Millipore Sigma 14-602M
Source text: (§1) PI3K-Alpha Kinase (PIK3CA) Activity, Wild-Type and H1047R Mutant and Determining IC50 Values for Inhibitors
(§2) Recombinant, catalytically active human full length PIK3KA Wild-type and H1047R mutant were purchased as 1:1 complex of N-terminal 6×his tagged p110α (catalytic) and untagged p85α (regulatory subunit) from EMD Millipore Sigma (cat. no. 14-602M and 14-792M, respectively). PIP2diC8 (Avanti Polar Lipids Inc., cat. no. 850185) or Soy PI (Avanti Polar Lipids Inc., cat. No. 840044P) was used as lipid substrate. PIP2diC8 or PI lyophilized powder was dissolved in milliQ water to a concentration of 1 mM just before use. 10 mM stock compounds in DMSO were serially diluted 1:3 to generate a 10-point curve and plated using an acoustic liquid handler system (Echo 550 series instrument, Labcyte). A 10× intermediate compound plate (200 uM starting compound concentration and 10% DMSO) was prepared before starting the reaction. A typical reaction mixture (50 uL) comprised 40 mM HEPES buffer, pH 7.4, 25 mM MgCl2, 0.01% v/v triton-X-100, 1% v/v DMSO, 20 mM NaCl, 1-5 nM WT or H1047R PI3K protein, 20 uM ATP, and 50 uM PIP2diC8 or Soy PI. 1% DMSO buffer alone without test compound was employed as MAX control (full activity in the absence of any inhibitor), and no enzyme control was used to determine the level of background Adenosine 5′-diphosphate (ADP) (MIN control). First, Wild-type (WT) and H1047R mutant protein in kinase buffer with all components except ATP were incubated with or without compound at 27° C. for 1 h. After the pre-incubation, the reaction was initiated by the addition of 20 uL of 50 uM ATP (20 uM final concentration). The reaction was allowed to proceed until about 10% conversion of ATP (2 uM ADP) at 27° C. After that time, 5 uL of reaction was mixed with 5 uL of ADP-Kinase Glo Reagent (ADP-Glo Kinase assay kit, Promega cat. no. V9102) supplemented with MgCl2 10 mM to stop the reaction and deplete the remaining ATP for 40 min at room temperature. Then, 10 uL of Kinase Detection Reagent (ADP-Glo Kinase assay kit, Promega cat. no. V9102) was added to simultaneously convert ADP to ATP and allow the newly synthesized ATP to be measured using a luciferase/luciferin reaction. After 30 min at room temperature the light generated was measured using a luminometer (EnVision plate reader, Perkin Elmer). Process data through Genedata-Screener tool. Relative IC50 values are determined using luminescence units by calculating percent inhibition with respect to on-plate “MIN” and “MAX” controls. Data was analyzed using a 4-parameter nonlinear logistic equation (four-parameter logistic concentration-response curve): Y=bot+[(top−bot)/1+(x/IC50)slope] where Y=% inhibition, X=concentration yielding y % inhibition, Bottom=minimum value of y attained by curve, Top=maximum value of y attained by curve and Slope=steepness of curve at IC50. % Inh=[(median Max−x/median Max−median Min)]·100 IC50: concentration of compound that reduces a given response (ligand binding, enzyme response) by 50%. IC50 relative: concentration giving half the compound's maximum response.

[2] = target: T2, PI3K-α (PIK3CA) H1047R mutant, p110α/p85α complex (Homo sapiens, UniProt P42336, H1047R); assay: PI3K-alpha kinase (PIK3CA) biochemical activity, ADP-Glo, H1047R mutant; details: Soy PI lipid substrate
T2 construct: Recombinant, catalytically active human full length PIK3KA Wild-type and H1047R mutant; 6×His (N); purchased EMD Millipore Sigma 14-792M
Source text: as §1, §2

T2 sequence (P42336 whole entry H1047R): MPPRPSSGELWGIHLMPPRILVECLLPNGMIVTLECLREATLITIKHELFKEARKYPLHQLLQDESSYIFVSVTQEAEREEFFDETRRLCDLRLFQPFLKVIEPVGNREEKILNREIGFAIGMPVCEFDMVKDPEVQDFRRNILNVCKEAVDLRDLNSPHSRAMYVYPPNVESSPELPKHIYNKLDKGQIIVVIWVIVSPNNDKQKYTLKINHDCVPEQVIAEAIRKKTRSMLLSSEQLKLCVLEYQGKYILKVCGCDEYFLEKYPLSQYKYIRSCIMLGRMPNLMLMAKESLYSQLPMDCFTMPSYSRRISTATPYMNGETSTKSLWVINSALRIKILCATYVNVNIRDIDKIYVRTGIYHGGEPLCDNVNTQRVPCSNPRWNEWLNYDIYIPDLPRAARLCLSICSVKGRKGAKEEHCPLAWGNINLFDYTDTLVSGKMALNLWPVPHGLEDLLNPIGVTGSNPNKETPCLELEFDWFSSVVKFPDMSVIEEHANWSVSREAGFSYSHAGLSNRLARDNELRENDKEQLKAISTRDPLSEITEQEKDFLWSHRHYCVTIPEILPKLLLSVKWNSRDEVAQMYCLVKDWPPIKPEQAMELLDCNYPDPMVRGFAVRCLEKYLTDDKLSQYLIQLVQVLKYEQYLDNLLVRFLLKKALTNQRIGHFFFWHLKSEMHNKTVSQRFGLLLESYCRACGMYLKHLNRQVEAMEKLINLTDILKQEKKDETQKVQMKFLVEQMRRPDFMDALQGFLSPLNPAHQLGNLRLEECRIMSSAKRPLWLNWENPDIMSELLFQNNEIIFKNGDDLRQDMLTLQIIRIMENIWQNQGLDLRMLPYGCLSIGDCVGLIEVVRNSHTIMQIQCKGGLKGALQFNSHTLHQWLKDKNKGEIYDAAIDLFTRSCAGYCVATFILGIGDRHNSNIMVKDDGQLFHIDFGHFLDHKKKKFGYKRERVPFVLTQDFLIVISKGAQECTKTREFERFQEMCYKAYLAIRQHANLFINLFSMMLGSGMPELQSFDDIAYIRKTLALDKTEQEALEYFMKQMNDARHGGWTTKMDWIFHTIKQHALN
T2 sequence (P27986 whole entry partner): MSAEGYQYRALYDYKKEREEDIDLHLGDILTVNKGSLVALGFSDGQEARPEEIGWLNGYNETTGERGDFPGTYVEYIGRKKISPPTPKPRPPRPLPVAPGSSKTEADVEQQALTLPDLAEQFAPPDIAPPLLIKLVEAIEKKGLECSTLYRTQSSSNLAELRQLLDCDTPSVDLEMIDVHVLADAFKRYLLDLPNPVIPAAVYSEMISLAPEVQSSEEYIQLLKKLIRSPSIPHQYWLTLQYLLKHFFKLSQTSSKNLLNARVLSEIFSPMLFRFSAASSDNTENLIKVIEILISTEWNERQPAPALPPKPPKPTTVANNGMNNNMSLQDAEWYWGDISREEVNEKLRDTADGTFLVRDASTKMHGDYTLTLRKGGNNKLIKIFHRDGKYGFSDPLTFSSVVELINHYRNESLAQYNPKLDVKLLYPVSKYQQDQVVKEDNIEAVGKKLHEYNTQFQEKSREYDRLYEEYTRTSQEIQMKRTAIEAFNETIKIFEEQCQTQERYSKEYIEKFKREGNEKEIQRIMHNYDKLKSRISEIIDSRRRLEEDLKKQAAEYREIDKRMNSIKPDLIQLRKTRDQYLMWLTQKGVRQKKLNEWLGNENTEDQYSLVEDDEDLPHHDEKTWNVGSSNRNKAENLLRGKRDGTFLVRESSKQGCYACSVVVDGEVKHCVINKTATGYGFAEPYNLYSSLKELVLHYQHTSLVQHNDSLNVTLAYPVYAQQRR

Structure (SMILES) | IC50 [1] | IC50 [2]
Cc1cc(C(C)Nc2ccccc2C(=O)O)c2oc(-n3cc4ccccc4n3)cc(=O)c2c1 (single isomer, unassigned) [Example 50, 2-[1-(2-Indazol-2-yl-6-methyl-4-oxo-chromen-8-yl)ethylamino]benzoic acid] | 1000 to 5000 nM | < 500 nM
Cc1cc(C(C)Nc2ccccc2C(=O)O)c2oc(-c3ccc4nc(C)cn4c3)cc(=O)c2c1 (single isomer, unassigned) [Example 38, 2-[1-[6-Methyl-2-(2-methylimidazo[1,2-a]pyridin-6-yl)-4-oxo-chromen-8-yl]ethylamino]benzoic acid] | 1000 to 5000 nM | < 500 nM
Cc1cc(C(C)Nc2ccccc2C(=O)O)c2oc(-c3cnc4sc(C)nc4c3)cc(=O)c2c1 (single isomer, unassigned) [Example 81, 2-[1-[6-Methyl-2-(2-methylthiazolo[5,4-b]pyridin-6-yl)-4-oxo-chromen-8-yl]ethylamino]benzoic acid] | 1000 to 5000 nM | < 500 nM
Cc1cc(C(C)Nc2ccccc2C(=O)O)c2oc(-n3nnc4ccccc43)cc(=O)c2c1 (single isomer, unassigned) [Example 85, 2-[1-[2-(Benzotriazol-1-yl)-6-methyl-4-oxo-chromen-8-yl]ethylamino]benzoic acid] | 1000 to 5000 nM | < 500 nM
Cc1cc(C(C)Nc2ccccc2C(=O)O)c2oc(-c3ccc4c(cnn4CC(C)(C)O)c3)cc(=O)c2c1 (single isomer, unassigned) [Example 123, 2-[1-[2-[1-(2-Hydroxy-2-methyl-propyl)indazol-5-yl]-6-methyl-4-oxo-chromen-8-yl]ethylamino]benzoic acid] | 1000 to 5000 nM | < 500 nM
Cc1cn2nc(-c3cc(=O)c4cc(C(F)(F)F)cc(C(C)Nc5ccccc5C(=O)O)c4o3)ccc2n1 (single isomer, unassigned) [Example 101, 2-[1-[2-(2-Methylimidazo[1,2-b]pyridazin-6-yl)-4-oxo-6-(trifluoromethyl)chromen-8-yl]ethylamino]benzoic acid] | 1000 to 5000 nM | < 500 nM
Cc1cn2cc(-c3oc4c(C(C)Nc5ccccc5C(=O)O)cc(F)cc4c(=O)c3C)ccc2n1 (single isomer, unassigned) [Example 56, 2-[1-[6-Fluoro-3-methyl-2-(2-methylimidazo[1,2-a]pyridin-6-yl)-4-oxo-chromen-8-yl]ethylamino]benzoic acid] | > 10000 nM | > 10000 nM
Cc1cc(C(C)Nc2ccccc2C(=O)O)c2oc(-c3ccc4nc(C)cn4n3)cc(=O)c2c1 (single isomer, unassigned) [Example 69, 2-[1-[6-Methyl-2-(2-methylimidazo[1,2-b]pyridazin-6-yl)-4-oxo-chromen-8-yl]ethylamino]benzoic acid] | 1000 to 5000 nM | < 500 nM
Cc1cc(-c2cc(=O)c3cc(C(F)(F)F)cc(C(C)Nc4ccc(Cl)nc4C(=O)O)c3o2)cc2cn(C)nc12 (centres unmarked) [Example 174, 6-Chloro-3-[1-[2-(2,7-dimethylindazol-5-yl)-4-oxo-6-(trifluoromethyl)chromen-8-yl]ethylamino]pyridine-2-carboxylic acid] | > 10000 nM | < 500 nM
Cc1cc(C(C)Nc2ccccc2C(=O)O)c2oc(-c3ccc4c(cnn4C)n3)c(C)c(=O)c2c1 (single isomer, unassigned) [Example 131, 2-[1-[3,6-Dimethyl-2-(1-methylpyrazolo[4,3-b]pyridin-5-yl)-4-oxo-chromen-8-yl]ethylamino]benzoic acid] | 1000 to 5000 nM | < 500 nM
Cc1cc(C(C)Nc2ccccc2C(=O)O)c2oc(-c3ccn4ccnc4c3)cc(=O)c2c1 (single isomer, unassigned) [Example 80, 2-[1-(2-Imidazo[1,2-a]pyridin-7-yl-6-methyl-4-oxo-chromen-8-yl)ethylamino]benzoic acid] | 1000 to 5000 nM | < 500 nM
Cc1cc(C(C)Nc2ccccc2C(=O)O)c2oc(-c3ccc4ccn(C)c4n3)cc(=O)c2c1 (single isomer, unassigned) [Example 159, 2-[1-[6-Methyl-2-(1-methylpyrrolo[2,3-b]pyridin-6-yl)-4-oxo-chromen-8-yl]ethylamino]benzoic acid] | 1000 to 5000 nM | < 500 nM
Cc1cc(C(C)Nc2ccccc2C(=O)O)c2oc(-c3ccc4c(cnn4C)n3)cc(=O)c2c1 (single isomer, unassigned) [Example 164, 2-[1-[6-Methyl-2-(1-methylpyrazolo[4,3-b]pyridin-5-yl)-4-oxo-chromen-8-yl]ethylamino]benzoic acid] | 1000 to 5000 nM | < 500 nM
Cc1cc(C(C)Nc2ccccc2C(=O)O)c2oc(-c3ccc4nccn4c3)cc(=O)c2c1 (single isomer, unassigned) [Example 73, 2-[1-(2-Imidazo[1,2-a]pyridin-6-yl-6-methyl-4-oxo-chromen-8-yl)ethylamino]benzoic acid] | 1000 to 5000 nM | < 500 nM
Cc1cc(C(C)Nc2ccc(C)nc2C(=O)O)c2oc(-c3ccc4nn(C)cc4c3)cc(=O)c2c1 (single isomer, unassigned) [Example 180, 6-Methyl-3-[1-[6-methyl-2-(2-methylindazol-5-yl)-4-oxo-chromen-8-yl]ethylamino]pyridine-2-carboxylic acid] | 1000 to 5000 nM | < 500 nM
Cc1cc(C(C)Nc2ccccc2C(=O)O)c2oc(-c3nn(C)c4ccccc34)cc(=O)c2c1 (single isomer, unassigned) [Example 23, 2-[1-[6-Methyl-2-(1-methylindazol-3-yl)-4-oxo-chromen-8-yl]ethylamino]benzoic acid] | 500 to 1000 nM | < 500 nM
Cc1cc(C(C)Nc2ccccc2C(=O)O)c2oc(-c3ccc4c(c3)CN(C)C4=O)c(C)c(=O)c2c1 (single isomer, unassigned) [Example 137, 2-[1-[3,6-Dimethyl-2-(2-methyl-1-oxo-isoindolin-5-yl)-4-oxo-chromen-8-yl]ethylamino]benzoic acid] | 1000 to 5000 nM | < 500 nM
Cc1cc(C(C)Nc2ccccc2C(=O)O)c2oc(-c3ccc4nnc(C(C)C)n4c3)cc(=O)c2c1 (single isomer, unassigned) [Example 78, 2-[1-[2-(3-Isopropyl-[1,2,4]triazolo[4,3-a]pyridin-6-yl)-6-methyl-4-oxo-chromen-8-yl]ethylamino]benzoic acid] | > 10000 nM | 1000 to 5000 nM
Cc1cc(C(C)Nc2ccccc2C(=O)O)c2oc(-c3ccc4nncn4c3)cc(=O)c2c1 (single isomer, unassigned) [Example 76, 2-[1-[6-Methyl-4-oxo-2-([1,2,4]triazolo[4,3-a]pyridin-6-yl)chromen-8-yl]ethylamino]benzoic acid] | > 10000 nM | < 500 nM
Cc1cc(C(C)Nc2ccccc2C(=O)O)c2oc(-c3ccc4cn[nH]c4n3)cc(=O)c2c1 (single isomer, unassigned) [Example 121, 2-[1-[6-Methyl-4-oxo-2-(1H-pyrazolo[3,4-b]pyridin-6-yl)chromen-8-yl]ethylamino]benzoic acid] | 1000 to 5000 nM | < 500 nM
Cc1cc(C(C)Nc2ccccc2C(=O)O)c2oc(-n3cnc4ccccc43)cc(=O)c2c1 (single isomer, unassigned) [Example 84, 2-[1-[2-(Benzimidazol-1-yl)-6-methyl-4-oxo-chromen-8-yl]ethylamino]benzoic acid] | 5000 to 10000 nM | < 500 nM
Cc1cc(C(C)Nc2ccccc2C(=O)O)c2oc(-c3ccc4c(c3)CN(C)C4=O)cc(=O)c2c1 (single isomer, unassigned) [Example 31, 2-[1-[6-Methyl-2-(2-methyl-1-oxo-isoindolin-5-yl)-4-oxo-chromen-8-yl]ethylamino]benzoic acid] | 1000 to 5000 nM | < 500 nM
